Values quoted from earlier work as cited in patent US11382865B2, “Pharmaceutical preparation and method for its manufacture” (BAYER ANIMAL HEALTH GMBH, priority 2016, dated 2022).

How the values were obtained:
[1] = test system: parasitic worms (helminths); details: veterinary parasiticide

Question: Which results are given for `CO/N=C1\C[C@]2(C[C@@H]3C[C@@H](C/C=C(\C)C[C@@H](C)/C=C/C=C4\CO[C@@H]5[C@H](O)C(C)=C[C@@H](C(=O)O3)[C@]45O)O2)O[C@H](/C(C)=C/C(C)C)[C@H]1C` [Moxidectin]?
Answer: Dose at which active [1]: < 25 μg/kg body weight; Solubility in organic solvents (organic solvents): readily soluble; Solubility in water (water): practically insoluble
